Experimental data taken from patent EP4596537A1, “NOVEL FLUORENE DERIVATIVE COMPOUND AND USE THEREOF” (JD Bioscience Inc., priority 2022, dated 2024).

What follows are molecules tested on PDHE1α S293 (assay: In vitro PDH S293 phosphorylation inhibition (Western blot) in HEK293 cells). Details: Homo sapiens, 5 hours.
Assay type: cell-based, human
Protocol: HEK293 cells, which are human embryonic kidney cells, were seeded at a density of 2 × 10^6 in a 60 mm dish, and cultured for 24 hours. After replacing the medium with a medium comprising 0.5% FBS, the compounds prepared according to Examples 1 to 54 were treated at various concentrations. 5 hours later, the cells were scraped off and collected into a 15 mL conical tube and centrifuged at 1500 rpm for 10 minutes. The supernatant was discarded, the resultant was washed with 1× PBS, and transferred to a 1.5 mL e-tube, followed by centrifugation at 10,000 rpm for 5 minutes. The supernatant was discarded again, a lysis buffer was added, and the cells were lysed on ice for 30 minutes. The cells were vortexed every 10 minutes to completely lyse, and centrifuged again at 10,000 rpm for 15 minutes at 4°C, and the supernatant was collected. The protein in the supernatant was quantified using BCA technique, and the sample buffer was added to 20 µg of protein and allowed to react at 70°C for 5 minutes. The expression of PDHE1α S232, S293, S300, and total PDHE1α proteins was detected by Western blot, and the resulting PDH S293 phosphorylation inhibition is shown in Table 6. […]
Molecule `CC(C(=O)NNc1cnccn1)n1cc(-c2cc(F)cc3c2-c2ccccc2C3(O)C(F)(F)F)cn1` (stereo not shown) [Example 24, 2-(4-(2-fluoro-9-hydroxy-9-(trifluoromethyl)-9H-fluoren-4-yl)-1H-pyrazol-1-yl)-N'-(pyrazin-2-yl)propanehydrazide] has an inhibition at 1 µM of no less than 50%. Work on `COc1cc(-c2cnn(C(C)C(=O)NNc3cnccn3)c2)c2c(c1)C(O)(C(F)(F)F)c1ccccc1-2` (stereo not shown) [Example 25, 2-(4-(9-hydroxy-2-methoxy-9-(trifluoromethyl)-9H-fluoren-4-yl)-1H-pyrazol-1-yl)-N'-(pyrazin-2-yl)propanehydrazide] yielded an inhibition at 1 µM of no less than 50%. Molecule `CC(C(=O)NNc1ccc(C(F)(F)F)cn1)n1cc(-c2cc(F)cc3c2-c2ccccc2C3(O)C(F)(F)F)cn1` (stereo not shown) [Example 26, 2-(4-(2-fluoro-9-hydroxy-9-(trifluoromethyl)-9H-fluoren-4-yl)-1H-pyrazol-1-yl)-N'-(5-(trifluoromethyl)pyridin-2-yl)propanehydrazide] has an inhibition at 1 µM of no less than 50%. Molecule `COc1cc(-c2cnn(C(C)C(=O)NNc3ccc(C(F)(F)F)cn3)c2)c2c(c1)C(O)(C(F)(F)F)c1ccccc1-2` (stereo not shown) [Example 27, 2-(4-(9-hydroxy-2-methoxy-9-(trifluoromethyl)-9H-fluoren-4-yl)-1H-pyrazol-1-yl)-N'-(5-(trifluoromethyl)pyridin-2-yl)propanehydrazide] has an inhibition at 1 µM of no less than 50%. `CC(C(=O)NNc1ncccn1)n1cc(-c2cc(F)cc3c2-c2ccccc2C3(O)C(F)(F)F)cn1` (stereo not shown) [Example 28, 2-(4-(2-fluoro-9-hydroxy-9-(trifluoromethyl)-9H-fluoren-4-yl)-1H-pyrazol-1-yl)-N'-(pyrimidin-2-yl)propanehydrazide] gave an inhibition at 1 µM of no less than 50%. In the case of `COc1cc(-c2cnn(C(C)C(=O)NNc3ncccn3)c2)c2c(c1)C(O)(C(F)(F)F)c1ccccc1-2` (stereo not shown) [Example 29, 2-(4-(9-hydroxy-2-methoxy-9-(trifluoromethyl)-9H-fluoren-4-yl)-1H-pyrazol-1-yl)-N'-(pyrimidin-2-yl)propanehydrazide], the inhibition at 1 µM is reported as no less than 50%. In the case of `CC(C(=O)NNc1cccnc1)n1cc(-c2cc(F)cc3c2-c2ccccc2C3(O)C(F)(F)F)cn1` (stereo not shown) [Example 30, 2-(4-(2-fluoro-9-hydroxy-9-(trifluoromethyl)-9H-fluoren-4-yl)-1H-pyrazol-1-yl)-N'-(pyridin-3-yl)propanehydrazide], the inhibition at 1 µM is reported as no less than 50%. Work on `COc1cc(-c2cnn(C(C)C(=O)NNc3cccnc3)c2)c2c(c1)C(O)(C(F)(F)F)c1ccccc1-2` (stereo not shown) [Example 31, 2-(4-(9-hydroxy-2-methoxy-9-(trifluoromethyl)-9H-fluoren-4-yl)-1H-pyrazol-1-yl)-N'-(pyridin-3-yl)propanehydrazide] yielded an inhibition at 1 µM of no less than 50%. `CC(C(=O)NNc1ccncc1)n1cc(-c2cc(F)cc3c2-c2ccccc2C3(O)C(F)(F)F)cn1` (stereo not shown) [Example 34, 2-(4-(2-fluoro-9-hydroxy-9-(trifluoromethyl)-9H-fluoren-4-yl)-1H-pyrazol-1-yl)-N'-(pyridin-4-yl)propanehydrazide] gave an inhibition at 1 µM of no less than 50%. Molecule `CC(C(=O)NNc1ncnc2ccccc12)n1cc(-c2cc(F)cc3c2-c2ccccc2C3(O)C(F)(F)F)cn1` (stereo not shown) [Example 35, 2-(4-(2-fluoro-9-hydroxy-9-(trifluoromethyl)-9H-fluoren-4-yl)-1H-pyrazol-1-yl)-N'-(quinazolin-4-yl)propanehydrazide] has an inhibition at 1 µM of no less than 50%. With `CC(C(=O)NNc1ccnc2ccccc12)n1cc(-c2cc(F)cc3c2-c2ccccc2C3(O)C(F)(F)F)cn1` (stereo not shown) [Example 36, 2-(4-(2-fluoro-9-hydroxy-9-(trifluoromethyl)-9H-fluoren-4-yl)-1H-pyrazol-1-yl)-N'-(quinolin-4-yl)propanehydrazide] the inhibition at 1 µM was no less than 50%. In the case of `CC(C(=O)NNc1cnc2ccccc2n1)n1cc(-c2cc(F)cc3c2-c2ccccc2C3(O)C(F)(F)F)cn1` (stereo not shown) [Example 37, 2-(4-(2-fluoro-9-hydroxy-9-(trifluoromethyl)-9H-fluoren-4-yl)-1H-pyrazol-1-yl)-N'-(quinoxalin-2-yl)propanehydrazide], the inhibition at 1 µM is reported as no less than 50%. With `CC(C(=O)NNc1cc2ccccc2[nH]c1=O)n1cc(-c2cc(F)cc3c2-c2ccccc2C3(O)C(F)(F)F)cn1` (stereo not shown) [Example 38, 2-(4-(2-fluoro-9-hydroxy-9-(trifluoromethyl)-9H-fluoren-4-yl)-1H-pyrazol-1-yl)-N'-(2-oxo-1,2-dihydroquinolin-3-yl)propanehydrazide] the inhibition at 1 µM was no less than 50%. `CC(C(=O)NNc1ccc2ccccc2n1)n1cc(-c2cc(F)cc3c2-c2ccccc2C3(O)C(F)(F)F)cn1` (stereo not shown) [Example 39, 2-(4-(2-fluoro-9-hydroxy-9-(trifluoromethyl)-9H-fluoren-4-yl)-1H-pyrazol-1-yl)-N'-(quinolin-2-yl)propanehydrazide] gave an inhibition at 1 µM of no less than 50%. Molecule `CC(C(=O)NNc1cc(=O)n(C)c2ccccc12)n1cc(-c2cc(F)cc3c2-c2ccccc2C3(O)C(F)(F)F)cn1` (stereo not shown) [Example 40, 2-(4-(2-fluoro-9-hydroxy-9-(trifluoromethyl)-9H-fluoren-4-yl)-1H-pyrazol-1-yl)-N'-(1-methyl-2-oxo-1,2-dihydroquinolin-4-yl)propanehydrazide] has an inhibition at 1 µM of no less than 50%. With `CC(C(=O)NNc1ccc2nccn2n1)n1cc(-c2cc(F)cc3c2-c2ccccc2C3(O)C(F)(F)F)cn1` (stereo not shown) [Example 41, 2-(4-(2-fluoro-9-hydroxy-9-(trifluoromethyl)-9H-fluoren-4-yl)-1H-pyrazol-1-yl)-N'-(imidazo[1,2-b]pyridazin-6-yl)propanehydrazide] the inhibition at 1 µM was no less than 50%. `CC(C(=O)NNc1nc2ccccc2s1)n1cc(-c2cc(F)cc3c2-c2ccccc2C3(O)C(F)(F)F)cn1` (stereo not shown) [Example 42, N'-(benzo[d]thiazol-2-yl)-2-(4-(2-fluoro-9-hydroxy-9-(trifluoromethyl)-9H-fluoren-4-yl)-1H-pyrazol-1-yl)propanehydrazide] was tested, and the inhibition at 1 µM was no less than 50%. Work on `CCC(C(=O)NNc1ccc(F)cc1)n1cc(-c2cc(F)cc3c2-c2ccccc2C3(O)C(F)(F)F)cn1` (stereo not shown) [Example 43, 2-(4-(2-fluoro-9-hydroxy-9-(trifluoromethyl)-9H-fluoren-4-yl)-1H-pyrazol-1-yl)-N'-(4-fluorophenyl)butanehydrazide] yielded an inhibition at 1 µM of no less than 50%. Work on `CC(C)C(C(=O)NNc1ccc(F)cc1)n1cc(-c2cc(F)cc3c2-c2ccccc2C3(O)C(F)(F)F)cn1` (stereo not shown) [Example 44, 2-(4-(2-fluoro-9-hydroxy-9-(trifluoromethyl)-9H-fluoren-4-yl)-1H-pyrazol-1-yl)-N'-(4-fluorophenyl)-3-methylbutanehydrazide] yielded an inhibition at 1 µM of no less than 50%. Molecule `CC(C)CC(C(=O)NNc1ccc(F)cc1)n1cc(-c2cc(F)cc3c2-c2ccccc2C3(O)C(F)(F)F)cn1` (stereo not shown) [Example 45, 2-(4-(2-fluoro-9-hydroxy-9-(trifluoromethyl)-9H-fluoren-4-yl)-1H-pyrazol-1-yl)-N'-(4-fluorophenyl)-4-methylpentanehydrazide] has an inhibition at 1 µM of no less than 50%. Molecule `O=C(NNc1ccc(F)cc1)C(CC1CCCCC1)n1cc(-c2cc(F)cc3c2-c2ccccc2C3(O)C(F)(F)F)cn1` (stereo not shown) [Example 46, 3-cyclohexyl-2-(4-(2-fluoro-9-hydroxy-9-(trifluoromethyl)-9H-fluoren-4-yl)-1H-pyrazol-1-yl)-N'-(4-fluorophenyl)propanehydrazide] has an inhibition at 1 µM of no less than 50%. For `CC(C)(C(=O)NNc1ccc(F)cc1)n1cc(-c2cc(F)cc3c2-c2ccccc2C3(O)C(F)(F)F)cn1` (stereo not shown) [Example 47, 2-(4-(2-fluoro-9-hydroxy-9-(trifluoromethyl)-9H-fluoren-4-yl)-1H-pyrazol-1-yl)-N'-(4-fluorophenyl)-2-methylpropanehydrazide], the inhibition at 1 µM was no less than 50%.
